Read-outs that look alike come from different tables or passages of the source.
How the values were obtained:
RS4-11 (MLL-AF4) = experiment: LTP assay, CellTiterGlo, T4-T14 (Example 103), RS4-11; assay type: cell-based; settings: for inhibition of cell viability (in words): RS4;11, LTP assay
Procedure: (§1) The day of the experiment (T0) all the cell line suspensions were counted by Cell Viability Analyser, Vi-CELL and properly diluted with fresh medium to obtain the cell density reported in the Test System paragraph.
(§2) Cells were tested after 4 passages after thawing.
(§3) 200 μL/well and 150 μL/well of cell suspension were added into the 0.4 μL/well and 0.3 μL/well compound plates, respectively. • Cell plate containing 200 μL/well suspension was incubated at 37° C. in a humidified incubator with 5% CO2. • From each well of the 150 μL/well cell assay plate, 100 μL were harvested and transferred into a 96-well Optiplate (Perkin Elmer, Cat. n. 6005290) and cell viability was measured as described in 4.3 paragraphs (T0).
(§4) After four days in culture (T4) 150 μL/well of fresh medium were added into a new 0.3 μL/well copy compound plate. • From each well of the 200 μL/well cell assay plate: • 100 μL were sampled for the cell viability measurement as described in 4.3 paragraphs (T4). • 50 μL were harvested and added to the 150 μL/well compound plate prepared as described in the first point to dilute 1:4 the cell suspension. • The cell assay plate diluted and containing 200 μL/well suspension were incubated at 37° C. in a humidified incubator with 5% Co2.
(§5) At T7-T11-T14 it was proceeded as described in T4, with the exception that no further cell dilution was carried out at T14.
(§6) Plates containing the samples to be tested were equilibrated at room temperature for approximately 30 min and then 30 μL/well of the Promega CellTiterGlo® reagent were added.
(§7) Contents will be mixed for 5 min on an orbital shaker to induce cell lysis and then incubated at room temperature for an additional 10 min to stabilize the luminescent signal.
(§8) Luminescence was read by using VictorV (Perkin Elmer) multilabel plate reader using the standard protocol for luminescence in 96 well plate.
(§9) Data were expressed as % of inhibition compared to the 0.2% DMSO negative control, and was calculated as follows: […]
(§10) CRCs were analysed by GraphPad and IC50 values were calculated by non-linear regression using 4 parameter-logistic equation. IC50 (μM) values were reported in the final data table.
(§11) The curve fittings were performed leaving free all the parameters. Any constrain were reported in the results table.

MV4-11 (MLL-AF4) = experiment: LTP assay, CellTiterGlo, T4-T14 (Example 103), MV4-11; assay type: cell-based, human; settings: for inhibition of cell viability (in words): MV4-11, LTP assay
Procedure: as §1, §2, §3, §4, §5, §6, §7, §8, §9, §10, §11

MV-4-11 = experiment: Long term proliferation assay (Table 3A), MV-4-11; assay type: cell-based; settings: Homo sapiens, MV4-11
MOLM-13 (MLL-AF9) = experiment: LTP assay, CellTiterGlo, T4-T14 (Example 103), MOLM-13; assay type: cell-based, human; settings: for inhibition of cell viability (in words): MOLM-13, LTP assay
Procedure: as §1, §2, §3, §4, §5, §6, §7, §8, §9, §10, §11

HL-60 = experiment: LTP assay, CellTiterGlo, T4-T14 (Example 103), HL-60; assay type: cell-based; settings: for inhibition of cell viability (in words): HL-60, LTP assay
Procedure: as §1, §2, §3, §4, §5, §6, §7, §8, §9, §10, §11

MV4-11 = experiment: Long term proliferation, Cell Titer-Glo (Table 3B), MV4-11; assay type: cell-based; settings: Homo sapiens, MV4-11, Cell Titer-Glo
KG-1 = experiment: Long term proliferation, Cell Titer-Glo (Table 3B), KG-1; assay type: cell-based; settings: Homo sapiens, KG-1, Cell Titer-Glo
[1] = Homo sapiens, RS4-11, 96 h, RS4-11 (MLL-AF4), T4 (Day 4), read-out: IC50 T4 (Day 4)
[2] = Homo sapiens, RS4-11, RS4-11 (MLL-AF4), T7, read-out: IC50 T7
[3] = Homo sapiens, RS4-11, RS4-11 (MLL-AF4), T11, read-out: IC50 T11
[4] = Homo sapiens, MV4-11, 96 h, MV4-11 (MLL-AF4), T4 (Day 4), read-out: IC50 T4 (Day 4)
[5] = Homo sapiens, MV4-11, MV4-11 (MLL-AF4), T7, read-out: IC50 T7
[6] = Homo sapiens, MV4-11, MV4-11 (MLL-AF4), T11, read-out: IC50 T11
[7] = Homo sapiens, MV4-11, MV4-11 (MLL-AF4), T14, read-out: IC50 T14
[8] = MV-4-11, Day 4, read-out: MV-4-11 Day 4 IC50
[9] = Homo sapiens, MOLM-13, 96 h, MOLM-13 (MLL-AF9), T4 (Day 4), read-out: IC50 T4 (Day 4)
[10] = Homo sapiens, MOLM-13, MOLM-13 (MLL-AF9), T7, read-out: IC50 T7
[11] = Homo sapiens, MOLM-13, MOLM-13 (MLL-AF9), T11, read-out: IC50 T11
[12] = Homo sapiens, MOLM-13, MOLM-13 (MLL-AF9), T14, read-out: IC50 T14
[13] = MOLM-13 (MLL-AF9), T4 (Day 4), read-out: IC50 T4 (Day 4)
[14] = HL-60, T4 (Day 4), read-out: IC50 T4 (Day 4)
[15] = Homo sapiens, HL-60, 96 h, HL-60, T4 (Day 4), read-out: IC50 T4 (Day 4)
[16] = Homo sapiens, HL-60, HL-60, T7, read-out: IC50 T7
[17] = Homo sapiens, HL-60, HL-60, T11, read-out: IC50 T11
[18] = Homo sapiens, HL-60, HL-60, T14, read-out: IC50 T14
[19] = 96 h, Day 4, read-out: Day 4 IC50
[20] = 168 h, Day 7, read-out: Day 7 IC50
[21] = 264 h, Day 11, read-out: Day 11 IC50
[22] = 336 h, Day 14, read-out: Day 14 IC50

Row | Structure (SMILES) | IC50 (RS4-11 (MLL-AF4); [1]) [nM] | IC50 (RS4-11 (MLL-AF4); [2]) [nM] | IC50 (RS4-11 (MLL-AF4); [3]) [nM] | inhibition of cell viability (in words) (RS4-11 (MLL-AF4)) | IC50 (MV4-11 (MLL-AF4); [4]) [nM] | IC50 (MV4-11 (MLL-AF4); [5]) [nM] | IC50 (MV4-11 (MLL-AF4); [6]) [nM] | IC50 (MV4-11 (MLL-AF4); [7]) [nM] | inhibition of cell viability (in words) (MV4-11 (MLL-AF4)) | IC50 (MV-4-11; [8]) [nM] | IC50 (MOLM-13 (MLL-AF9); [9]) [nM] | IC50 (MOLM-13 (MLL-AF9); [10]) [nM] | IC50 (MOLM-13 (MLL-AF9); [11]) [nM] | IC50 (MOLM-13 (MLL-AF9); [12]) [nM] | IC50 (MOLM-13 (MLL-AF9); [13]) [nM] | inhibition of cell viability (in words) (MOLM-13 (MLL-AF9)) | inhibition of cell viability (in words) (HL-60) | IC50 (HL-60; [14]) [nM] | IC50 (HL-60; HL-60, T7, read-out: IC50 T7) [nM] | IC50 (HL-60; [15]) [nM] | also measured
1 | Cn1nc(-c2cccnc2)cc1CC(=O)Nc1ccc(-c2cc3c(N4CCOCC4)ncnc3[nH]2)cc1 [Compound 11, 2-[1-methyl-3-(pyridin-3-yl)-1H-pyrazol-5-yl]-N-{4-[4-(morpholin-4-yl)-7H-pyrrolo[2,3-d]pyrimidin-6-yl]phenyl}acetamide] | 1230 | 850 | 110 | fully inhibited cell viability | 650 | 500 | 420 | 310 | fully inhibited cell viability | 280 | 660 | 513 | 320 | 420 | 661 | fully inhibited cell viability | fully inhibited cell viability | 692 | 389 | 690 | IC50 (RS4-11 (MLL-AF4); RS4-11 (MLL-AF4), T7, read-out: IC50 T7): 851 nM; IC50 (MV4-11 (MLL-AF4); MV4-11 (MLL-AF4), T4 (Day 4), read-out: IC50 T4 (Day 4)): 646 nM; IC50 (MV4-11 (MLL-AF4); MV4-11 (MLL-AF4), T7, read-out: IC50 T7): 501 nM; IC50 (HL-60; [16]): 390 nM; IC50 (HL-60; [17]): 480 nM; IC50 (HL-60; [18]): 470 nM
2 | O=C(Cc1cc(-c2cccnc2)n[nH]1)Nc1ccc(-c2nc3c(N4CCOCC4)ncnc3[nH]2)cc1 [Compound 12, N-{4-[6-(morpholin-4-yl)-9H-purin-8-yl]phenyl}-2-[3-(pyridin-3-yl)-1H-pyrazol-5-yl]acetamide] | 580 | 420 | 260 | fully inhibited the cell viability | 1550 | 1260 | 850 | 870 | partial effect | 430 | > 5000 | 5750 | 562 | > 5000 | > 10000 | partial effect | No activity | > 10000 | > 10000 | > 5000 | IC50 (HL-60; [16]): > 5000 nM; IC50 (HL-60; [17]): > 5000 nM; IC50 (HL-60; [18]): > 5000 nM
3 | O=C(Nc1ccc(-c2cc3c(N4CCOCC4)ncnc3[nH]2)cc1)Nc1cc(-c2cccnc2)n[nH]1 [Compound 9, 1-{4-[4-(morpholin-4-yl)-7H-pyrrolo[2,3-d]pyrimidin-6-yl]phenyl}-3-[3-(pyridin-3-yl)-1H-pyrazol-5-yl]urea] | – | – | – | – | – | – | – | – | – | 490 | – | – | – | – | – | – | – | – | – | – | IC50 (MV4-11; [19]): 740 nM; IC50 (MV4-11; [20]): 380 nM; IC50 (MV4-11; [21]): 320 nM; IC50 (MV4-11; [22]): 210 nM; IC50 (MV-4-11; MV-4-11, Day 11, read-out: MV-4-11 Day 11 IC50): 257 nM; IC50 (KG-1; [19]): > 5000 nM; IC50 (KG-1; [20]): 4790 nM; IC50 (KG-1; [21]): 1700 nM; IC50 (KG-1; [22]): 1230 nM
